This passage reports half-life results from PubChem BioAssay AID1508591.

Some results are limits rather than exact numbers.

The conditions of this data set: rat; liver microsomes; pH 7.4; 15.0 min; 1.0 µM. (In general: Liver microsomes are vesicles of endoplasmic reticulum, rich in cytochrome P450 enzymes.)

For orientation: half-life means how long it takes for the measured level to halve. High values mean slow decline, low ones rapid decline. The compound `CCc1ccccc1Nc1ncnc2c1cnn2-c1ccc(Cl)cc1` showed a half-life of 7.13 min.

On to `Cc1cnc(-c2ccccc2C(C)C)nc1NCC1CCN(c2cccnc2)C1` (stereo unspecified), for which the half-life came out at 2.87 min.

Compound `Cc1ccc(S(=O)(=O)Nc2cc(C(=O)Nc3nc(-c4ccccc4)cs3)ccn2)cc1` returned a half-life above 30 min.

The compound `Cc1ccc(NC(=O)Nc2cc3c(cc2N2CCCCC2)n(C)c(=O)n3C)cc1Cl` showed a half-life of 6.3 min.

`Cc1ccc(S(=O)(=O)Nc2ccc(C(=O)Nc3nc(-c4ccccc4)cs3)cc2Cl)cc1` came in with a half-life of 4 min.

In the case of `COc1ccc(CCN2C(=O)N(c3ccc(F)cc3)C(=O)C2CC(=O)Nc2ccc(F)c(F)c2)cc1` (stereo unspecified), the half-life turned out to be 4.04 min.

`CC(=O)NC1CCN(c2nc(-c3ccc(Br)cc3)cs2)CC1` showed a half-life above 30 min.

`COc1cc(-c2ccnc3c2c(C)nn3-c2cccc(C(F)(F)F)c2)ccc1O` showed a half-life above 30 min.

Compound `CCCCOc1ccc(C(=O)N2CCC(c3n[nH]c(=O)n3-c3ccc(C)cc3)CC2)cc1` registered a half-life of 5.43 min.

Consider `CCOc1ccc(CCNC(=O)c2cc3ccccc3n2Cc2cccc(C)c2)cc1OCC`, for which the half-life amounted to 1.6 min.

Take `Cc1ccc(S(=O)(=O)Nc2nc3ccc(C)cc3nc2Nc2ccc3c(c2)OCO3)cc1`: the half-life was above 30 min.

Consider `Cc1noc(C)c1CN1CCNc2cc(Nc3ccccc3)ncc2C1`, for which the half-life was 5.25 min.

Turning to `COc1ccc(-c2[nH]nc3ncc(-c4ccc(CO)cc4)nc23)cc1F`, the half-life was 11.3 min.

For the compound `Cn1cc(S(=O)(=O)N2CCCCCC2)cc1C(=O)Nc1ccc(Cl)c(C(F)(F)F)c1`, the half-life turned out to be 5.98 min.

`O=C1Nc2ccc(Cl)cc2/C1=C\c1cc(Cl)c(O)c(Cl)c1` came in with a half-life above 30 min.

Consider `CCOC(=O)C1CCN(C(=O)C2(NC(=O)Nc3ccccc3Cl)CCCC2)CC1`, for which the half-life is 1.5 min.

In turn, `Cc1noc(C)c1-c1ccc2ncnc(NCc3ccc4[nH]ccc4c3)c2c1` returned a half-life of 3.2 min.

`O=c1ncn2nc(Sc3ccc(F)cc3F)ccc2c1-c1c(Cl)cccc1Cl` registered a half-life above 30 min.

Turning to `Cc1ccccc1S(=O)(=O)N1CCCC(CCC(=O)NCCN(C)C2CCCCC2)C1` (stereo unspecified), the half-life was found to be 2.16 min.

`Cc1ccc(-n2ncc3c(Nc4cccc(C(=O)O)c4)ncnc32)cc1` showed a half-life above 30 min.

As to `O=C(CCc1ccccc1)NC(c1cccs1)c1cc(Cl)c2cccnc2c1O` (stereo unspecified), the half-life worked out at 2.14 min.

On to `Cc1ccc(CNCc2cn[nH]c2-c2ccc(C)cc2)cc1`, for which the half-life amounted to 1.34 min.

In turn, `Cc1nc2sccn2c(=O)c1S(=O)(=O)Nc1ccc(N2CCN(S(C)(=O)=O)CC2)cc1` had a half-life above 30 min.

The compound `COc1ccccc1C(=O)Nc1ccccc1C(=O)Nc1cccc(S(=O)(=O)C(F)(F)F)c1` registered a half-life above 30 min.

Compound `NS(=O)(=O)c1ccc(NC(=O)c2cc3ncccn3n2)cc1` showed a half-life above 30 min.

The compound `CCN1CCN(CCCOc2ccc(-c3ccccc3)cc2)CC1` returned a half-life of 7.9 min.

In turn, `Clc1ccccc1CSc1nc2ncc(Br)cc2[nH]1` registered a half-life of 6.5 min.

For the compound `NC(=O)c1cccc(-c2cc(Nc3ccc(OC(F)(F)F)cc3)ncn2)c1`, the half-life was above 30 min.

Regarding `CCOC(=O)c1c[nH]c2c3c(ccc2c1=O)CCCC3`, the half-life was 20.4 min.

As for `Cc1ccccc1C(=O)Nc1ccc2c(c1)CCCN2C(=O)c1cccs1`, the half-life was 7.79 min.

Take `Cc1ccnc(NC(=S)N2CCN(c3cccc(C(F)(F)F)n3)CC2)c1`: the half-life worked out at 15 min.

Compound `Cc1ccc(S(=O)(=O)Nc2cnccc2C(=O)Nc2nc(-c3ccccc3)cs2)cc1` gave a half-life of 14.3 min.

The compound `CC(=O)Nc1ncc(S(=O)(=O)N2CCOCC2)s1` returned a half-life above 30 min.

On to `Cc1ccc(S(=O)(=O)NCC(=O)Nc2nc(-c3ccccc3)cs2)cc1`, for which the half-life is 2.1 min.

`Cc1c(C(=O)OCCOc2ccccc2)[nH]c2c1C(=O)CC(c1ccccc1)C2` (stereo unspecified) displayed a half-life of 5.25 min.

`Cc1cc(Oc2ccc(N)cn2)ccc1Cl`: the half-life is 17.8 min.

In turn, `O=C(Nc1nc(-c2ccccn2)cs1)c1cccc(S(=O)(=O)N2CCOCC2)c1` returned a half-life of 8.47 min.

Take `O=C(c1cnc(N2CCCCC2)c2ccccc12)N1CCN(c2ccccn2)CC1`: the half-life stood at 2.1 min.

In the case of `Cc1cnc(-c2ccccc2C(C)C)nc1NCc1ccc(-n2ccnn2)cc1`, the half-life is 10.3 min.

In turn, `Clc1ccc(-c2nnc(C3CCCCC3)o2)cc1` gave a half-life of 2.9 min.

`O=C(c1nc(-c2ccc(Cl)nc2)c2ccccn12)N1CCCC1` came in with a half-life of 8.91 min.

`COCc1cc(C)nc(SCC(=O)c2ccc(O)c(O)c2)c1C#N` displayed a half-life of 19 min.

`c1ccc2c(Nc3ccon3)nc(-c3ccncc3)nc2c1` showed a half-life of 6.2 min.

`O=C(Nc1ccc([S+](=O)([O-])Nc2nccs2)cc1)c1ncn[nH]1` came in with a half-life above 30 min.

Turning to `CC(=O)OCCN1C(=O)c2c(C)nc3ccc(S(=O)(=O)N4CCOCC4)cc3c2C1=O`, the half-life is 2.05 min.

As to `CC(C)C(=O)Nc1cccc(NC(=O)c2cc3ccccc3o2)c1`, the half-life was found to be 28 min.

In turn, `O=C(Nc1ncc([S+](=O)([O-])N2CCOCC2)s1)c1cccc(Br)c1` showed a half-life of 23 min.

Compound `Nc1c(C(=O)Nc2ccc(Cl)cc2)sc2nc3c(cc12)N1CCC3CC1` displayed a half-life of 24 min.

The compound `O=C(CNC(=O)c1cnccn1)NC1CCCc2c1[nH]c1ccc(Cl)cc21` (stereo unspecified) had a half-life above 30 min.

Regarding `CN1C(=O)c2ccccc2[S@](=O)c2ccc(C(=O)NCc3ccc(Cl)cc3)cc21`, the half-life was 15 min.

With `O=C(Nc1ncc(Cc2ccc(C(F)(F)F)cc2)s1)c1cnc(-c2ccccc2)s1`, the half-life was above 30 min.

For `COc1ccc(C(=O)NC2CCCc3c2[nH]c2ccccc32)cc1OC` (stereo unspecified), the half-life is 24.6 min.

The compound `O=C(NCc1ccc(S(=O)(=O)c2cccc(C(F)(F)F)c2)cc1)c1cnc2[nH]ncc2c1` came in with a half-life above 30 min.

In turn, `CC[C@H](CO)Nc1nc(NCc2ccccc2)c2ncn(C(C)C)c2n1` had a half-life of 5.51 min.

With `C[C@@H]1CC(=O)Nc2cccc(-c3cnn(C(C)(C)C)c3)c2N1`, the half-life is above 30 min.

Regarding `O=C(NCc1cccs1)c1cn2cc(-c3ccccc3)sc2n1`, the half-life came to 12.7 min.

`Cc1ccc(-n2c(=O)c3oc4ccccc4c3n(CC(=O)Nc3ccc(F)c(Cl)c3)c2=O)cc1C` showed a half-life of 29.6 min.

For `CCCCC(C)/C=C(C)/C=C(\C)C(=O)NC1=CC(O)(/C=C/C=C/C=C/C(=O)NC2=C(O)CCC2=O)C2OC2C1=O` (stereo unspecified), the half-life was found to be 1.83 min.

In the case of `COCCNC(=O)c1ccc(Cn2c(=S)[nH]c3cc4c(cc3c2=O)OCO4)cc1`, the half-life is above 30 min.

Compound `CC1CCN(S(=O)(=O)c2ccc3c(ccc(=O)n3CC(=O)NCc3ccc(Cl)cc3)c2)CC1` registered a half-life of 1.45 min.

In turn, `COc1ccccc1Nc1cnc2ccc(-c3ccc(OC)c(OC)c3)nn12` registered a half-life of 6.22 min.

Consider `C[C@H]1[C@@H](CCC(=O)Nc2ccc(F)cc2)O[C@@H]2O[C@]3(C)CC[C@@H]4[C@H](C)CC[C@@H]1[C@@]24OO3`, for which the half-life is 2 min.

As to `O=C(O)Cc1ccc2oc(-c3ccc(NC(=O)/C=C/c4ccc(Br)cc4)c(F)c3)nc2c1`, the half-life is above 30 min.

For `Nc1ncccc1-c1nc2ccc(-c3ccccc3)nc2n1-c1ccc(C2(N)CCC2)cc1`, the half-life was above 30 min.

Turning to `O=C(Nc1cccc(OC(F)(F)F)c1)c1cc(-c2ccc[nH]2)n[nH]1`, the half-life was 20.9 min.

`Cc1c(C)n(Cc2ccccc2)c2ccc(C(=O)OCCN(C)C)cc12` showed a half-life of 1.78 min.
